Drawing on PubChem BioAssay (NCI), this text covers GI50 and TGI for eight molecules.

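Dose response: 5 concentrations. Exposure: 48 h. Format: 96-well plates. Endpoint: linear interpolation; highest concentration if not reached. GI50 is the concentration that inhibits growth by half. TGI: total growth inhibition.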

Some test systems named below: HOP-92 NSCLC; HS 578T breast; K-562 leukemia; MOLT-4 leukemia; NCI-H226 lung; SF-539 CNS; SK-MEL-28 melanoma; SN12C renal; SNB-75 CNS; UACC-257 melanoma.
Holding throughout (experiment): growth of human tumour cells (NCI), 48 h

Take `CC(C)(O)c1ccc(N2CCN(c3nnc(Cc4ccccc4)c4ccccc34)CC2)nc1`: the GI50 was 7.74 µM in the experiment with HOP-92 NSCLC; 15.3 µM in the experiment with HS 578T breast; 4.81 µM in the experiment with K-562 leukemia; 5.4 µM in the experiment with MOLT-4 leukemia; 5.76 µM with NCI-H226 lung; 12.7 µM in the experiment on SF-539 CNS. The GI50 in the experiment with SK-MEL-28 melanoma was 12 µM; in the experiment with SN12C renal, 7.32 µM; in the experiment with SNB-75 CNS it was 9.74 µM; in the experiment with UACC-257 melanoma, 8.59 µM. Further, the TGI in the experiment on HOP-92 NSCLC was 38.7 µM; in the experiment with HS 578T breast, 41.4 µM; with K-562 leukemia, greater than 72.9 µM; in the experiment on MOLT-4 leukemia it was 25.7 µM; in the experiment with NCI-H226 lung, 22.4 µM; in the experiment with SF-539 CNS, 29.2 µM. Further, the TGI stood at 24.9 µM in the experiment on SK-MEL-28 melanoma, 33 µM with SN12C renal, 24.5 µM in the experiment on SNB-75 CNS and 21.7 µM in the experiment on UACC-257 melanoma.
In the case of `CCOC(=O)Cc1c[nH]c(=S)[nH]c1=O`, the GI50 with HOP-92 NSCLC, with HS 578T breast, in the experiment with K-562 leukemia, with MOLT-4 leukemia, with NCI-H226 lung and in the experiment on SF-539 CNS was greater than 100 µM throughout. Also, the GI50 in the experiment with SK-MEL-28 melanoma, with SN12C renal, with SNB-75 CNS and in the experiment with UACC-257 melanoma was greater than 100 µM each time. Moreover, the TGI in the experiment with HOP-92 NSCLC, with HS 578T breast, in the experiment with K-562 leukemia, in the experiment on MOLT-4 leukemia, in the experiment on NCI-H226 lung and in the experiment with SF-539 CNS was greater than 100 µM in each case. Besides, the TGI in the experiment on SK-MEL-28 melanoma, in the experiment on SN12C renal, in the experiment with SNB-75 CNS and in the experiment with UACC-257 melanoma was greater than 100 µM in each case.
For the molecule `CC12CCC(=O)C(O1)C1C(=O)c3cc4ccccc4cc3C(=O)C12` (centres undefined), the GI50 is 13.9 µM with HOP-92 NSCLC; 28.7 µM in the experiment on HS 578T breast; 16 µM in the experiment on K-562 leukemia; 10.4 µM with MOLT-4 leukemia; 14.4 µM in the experiment with NCI-H226 lung; 21.8 µM in the experiment on SF-539 CNS. The GI50 with SK-MEL-28 melanoma is 20.3 µM; with SN12C renal, 16.5 µM; in the experiment on SNB-75 CNS it was 29.2 µM; in the experiment on UACC-257 melanoma, 16.2 µM. The TGI was found to be 29.7 µM with HOP-92 NSCLC; 73.1 µM in the experiment with HS 578T breast; 41.5 µM with K-562 leukemia; 74.1 µM in the experiment on MOLT-4 leukemia; 41.9 µM in the experiment on NCI-H226 lung; 59.3 µM with SF-539 CNS. The TGI was 74.4 µM in the experiment with SK-MEL-28 melanoma, 36.4 µM in the experiment on SN12C renal, greater than 100 µM with SNB-75 CNS and 32.5 µM in the experiment on UACC-257 melanoma.
On to `c1ccc2nc(Cn3c[n+](Cc4ccc5ccccc5n4)c4ccccc43)ccc2c1`, for which the GI50 in the experiment on HOP-92 NSCLC is 0.93 µM; in the experiment on HS 578T breast, 3.19 µM; in the experiment on K-562 leukemia it was 1.25 µM; with MOLT-4 leukemia it was 3.37 µM; with NCI-H226 lung, 4.13 µM; in the experiment with SF-539 CNS, 2.61 µM. Also, the GI50 with SK-MEL-28 melanoma is 2.38 µM; in the experiment on SN12C renal it was 2.19 µM; with SNB-75 CNS, 2.09 µM; with UACC-257 melanoma, 2.02 µM. Also, the TGI in the experiment on HOP-92 NSCLC was 4.3 µM; with HS 578T breast it was 18.8 µM; in the experiment on K-562 leukemia it was 11.8 µM; in the experiment on MOLT-4 leukemia, 13 µM; in the experiment with NCI-H226 lung it was 20.4 µM; with SF-539 CNS, 12 µM. Moreover, the TGI worked out at 9.98 µM with SK-MEL-28 melanoma, 10.9 µM in the experiment on SN12C renal, 9.13 µM in the experiment on SNB-75 CNS and 5.33 µM with UACC-257 melanoma.
Turning to `CCN1C(=O)N(CC)C2C1NN=c1s/c(=C3\C(=O)N(C(C)C)c4ccccc43)c(=O)n12` (centres undefined), the GI50 in the experiment on HOP-92 NSCLC was 0.342 µM; in the experiment on HS 578T breast, 0.336 µM; in the experiment with K-562 leukemia it was 0.329 µM; in the experiment with MOLT-4 leukemia, 0.379 µM; with NCI-H226 lung, 0.441 µM; with SF-539 CNS, 0.24 µM. Moreover, the GI50 with SK-MEL-28 melanoma was 1.07 µM; with SN12C renal, 0.616 µM; in the experiment on SNB-75 CNS it was 0.317 µM; with UACC-257 melanoma, greater than 37.7 µM. Moreover, the TGI was 6.53 µM in the experiment on HOP-92 NSCLC; 40.3 µM in the experiment with HS 578T breast; greater than 100 µM in the experiment on K-562 leukemia; greater than 100 µM with MOLT-4 leukemia; 23.2 µM in the experiment on NCI-H226 lung; 0.706 µM in the experiment on SF-539 CNS. In addition, the TGI in the experiment on SK-MEL-28 melanoma is greater than 100 µM; with SN12C renal, greater than 100 µM; in the experiment on SNB-75 CNS, 20.9 µM; in the experiment with UACC-257 melanoma, greater than 100 µM.
`O=C(O)CS(=O)(=O)C(c1ccccc1)c1ccccc1`: the TGI with HOP-92 NSCLC, in the experiment on HS 578T breast, with K-562 leukemia, in the experiment on MOLT-4 leukemia, in the experiment on NCI-H226 lung and in the experiment with SF-539 CNS was greater than 100 µM throughout. For the same molecule, the TGI in the experiment with SK-MEL-28 melanoma, with SN12C renal, with SNB-75 CNS and in the experiment with UACC-257 melanoma was greater than 100 µM in each case.
In the case of `CC12CCC=CC1CCC1C2CCC2(C)C(c3ccc(=O)oc3)CCC12O` (centres undefined), the GI50 in the experiment on HOP-92 NSCLC was 0.123 µM; in the experiment with HS 578T breast, 0.0292 µM; in the experiment with K-562 leukemia, 0.0587 µM; in the experiment on MOLT-4 leukemia it was 0.0282 µM; in the experiment with NCI-H226 lung, 0.224 µM; with SF-539 CNS, 0.0531 µM. Further, the GI50 with SK-MEL-28 melanoma is 0.256 µM; in the experiment with SN12C renal it was 0.0422 µM; in the experiment on SNB-75 CNS, 0.0282 µM; in the experiment with UACC-257 melanoma, 0.255 µM. For the same molecule, the TGI with HOP-92 NSCLC was 0.639 µM; in the experiment with HS 578T breast, 0.308 µM; in the experiment on MOLT-4 leukemia, 0.0967 µM; in the experiment on NCI-H226 lung, 0.614 µM; with SF-539 CNS, 0.18 µM; in the experiment on SK-MEL-28 melanoma it was 1.38 µM. The TGI in the experiment with SN12C renal was determined as 0.571 µM; in the experiment on SNB-75 CNS, 0.164 µM; in the experiment on UACC-257 melanoma, 0.994 µM.
Turning to `O=C(O)CSSCC(=O)O`, the TGI in the experiment with HOP-92 NSCLC, with HS 578T breast, in the experiment on K-562 leukemia, in the experiment with MOLT-4 leukemia, in the experiment with NCI-H226 lung and with SF-539 CNS was greater than 100 µM throughout. Besides, the TGI with SK-MEL-28 melanoma, in the experiment on SN12C renal, with SNB-75 CNS and in the experiment with UACC-257 melanoma was greater than 100 µM throughout.
